Ends that are not written are not given here.
Experiments:
[1] = molecular target: nucleotide binding site (NBS) of IgEs; assay: Fluorescence quenching binding of NBS ligand; details: monovalent affinity
IgE^dansyl = assay: Fluorescence quenching binding of dansyl molecules to IgE^dansyl; details: dissociation constants for hapten-Napht conjugates
Method: To determine binding of HBI molecules to respective antibodies, we observed the quenching of tryptophan resides using a method previously described (Junutula JR, et al., Nat. Biotechnol. 2008; 26 (8): 925-932). Briefly, either IgE^dansyl or IgG^Penicillin was diluted into a non-binding 96-well dish at 40 nM in PBS. Then, HBI molecules which contained either a dansyl or DNP group were titrated into well and fluorescence (Ex. 280 nm, Em. 335) was observed using a SpectraMax M2 spectrophotometer. PBS and free tryptamine diluted to similar initial fluorescence values were used as controls to account for HBI fluorescence and non-specific quenching respectively.

trastuzumab [2] = assay: Fluorescence quenching assay with trastuzumab; assay type: binding; details: for Kd: fluorescence quenching, DNP-tagged ligands
Method: The binding constants (Kd) of monovalent ABS (trastuzumab binding peptide), NBS (naphthalene), and heterobivalent ligand (trast-napht) were determined using fluorescence quenching assay as previously described (Handlogten MW, et al., Chem Biol. 2011; 18 (9): 1179-1188). Briefly, ligands were titrated into trastuzumab (30 nM) as well as PBS and Indole-3-butyric acid (IBA) to exclude the effect of nonspecific interactions between DNP and tryptophan. Since DNP absorbs light at 335 nm and tryptophan emits light at 335 nm, the fluorescence of tryptophan is quenched by DNP. The fluorescence of tryptophan was read by SpectraMax M5 plate reader (Molecular Devices) at λex=280 nm and λem=335 nm with various concentrations of ligands. The fluorescence signals dropped upon titration of ligands and apparent binding constants were calculated using a Hill's curve fit in OriginPro 2015.

trastuzumab [3] = assay: Direct ELISA for selective binding of cHBL to trastuzumab; details: 8 hours, 37° C., pH 7.4
Method: ELISA was used to confirm selective binding of trast-cHBL to trastuzumab. […] FITC also reacted with trastuzumab at the same conditions except for pH; they were incubated in either PBS or carbonate-bicarbonate buffer. Trastuzumab without any covalent ligands was used as a negative control (pH 7.4). After an 8-hour reaction, all molecules were purified using Amicon Ultra-0.5 mL Centrifugal Filters to remove the unbound covalent ligands. Concentration of trastuzumab was determined by SpectraMax M5 plate reader. For ELISA, 96 well high-binding assay plate was coated with trastuzumab (0.5 nM in carbonate-bicarbonate buffer) overnight at 4° C. refrigerator. The next morning, the wells were washed with a washing buffer (0.05% Tween 20 in PBS) using AquaMax 2000 plate automatic washer (Molecular Devices) to remove unbound trastuzumab and blocked with blocking buffer (5% (w/v) BSA and 0.1% (v/v) Tween 20 in PBS) for 1 hour at room temperature. After 1 hour, the wells were washed and then incubated with goat anti-FITC IgG-HRP conjugate (1:20,000 in blocking buffer) for 1 hour. Amplex Red Hydrogen Peroxide/Peroxidase Assay kit was used to initiate enzymatic reaction and the fluorescence (λex=570 nm and λem=592 nm) was read by SpectraMax M5 plate reader.

trastuzumab [4] = assay: Western blot of ITC covalent conjugation to trastuzumab chains; assay type: biochemical; details: reducing gel
Method: ITC conjugation to active lysine on either light chain […] proximal to NBS was confirmed by western blot as previously described (Alves NJ, et al., Langmuir. 2012; 28 (25): 9640-9648). The samples (20 nM in 1×SDS reducing buffer) were run on a 10% SDS-PAGE gel at 110 V for 50 min in the presence of a Tris-glycine running buffer. The samples were then transferred to a nitrocellulose membrane (Bio-Rad) at 90 V for 90 min in a 20% methanol transfer buffer. The membrane was blocked with a blocking buffer (5% (w/v) non-fat dry milk in Tris buffered Saline with 0.05% Tween 20 (TBS-T)) for 1 hour. After 1 hour, the membrane was washed once with TBS-T and followed by incubation with HRP-conjugated goat anti-FITC IgG (1:20,000 in blocking buffer) for 45 min. The membrane was washed with 3×TBS-T for 10 min to remove the unbound secondary detection antibodies and subsequently incubated with chemiluminescent HRP substrate for 5 min to detect the location at which lysine on either heavy or light chain is conjugated to cHBL molecules. A second SDS-PAGE gel was run concurrently and stained in Commassie blue staining solution (0.15% Coomassie R-250 (EMD chemicals), 10% acetic acid and 20% methanol in DI water) and destained in destaining solution (10% acetic acid, methanol, and 80% DI water) to confirm that all the proteins were transferred to the membrane. […]

NBS of trastuzumab = assay: Competitive ELISA of naphthalene-biotin binding to the NBS; details: 2 and 10 μM, p<0.01
Method: The specificity of naphthalene to NBS of IgG was confirmed using UV photo-cross-linking method and competitive sandwich ELISA. The wells of high binding plate were coated with goat-derived anti-human IgGs (1 nM in carbonate-bicarbonate buffer) overnight at 4° C. Trastuzumab (100 nM in PBS) prepared for ELISA described above was incubated with naphthalene-EG11-biotin (25 μM in PBS) for 1 hour at room temperature. PBS with only naphthalene-EG11-biotin was used as a negative control to normalize the binding curve. After 1 hour incubation, the molecules were exposed to UV light (1 J/cm^2) in a Spectroline UV select Series Cross-linker (Spectronics) to induce covalent photo-cross-linking of naphthalene to unbound NBS. The molecules were spun and 2 nM of the molecules were prepared in the blocking buffer. The wells coated with goat anti-human IgGs were washed and blocked with the blocking buffer for 1 hour. The wells were washed followed by incubation with the UV photo-cross-linked trastuzumab (2 nM) for 1 hour. […] An Amplex red assay kit was used to detect the fluorescence signals from the specific binding of naphthalene to NBS induced by UV photo-cross-linking. Since cHBL contains naphthalene, blocked NBS of trastuzumab is expected not to be photo-cross-linked to naphthalene-EGn-biotin, leading to relatively lower signals of fluorescence in the presence of cHBL.

[5] = system: HER2/neu receptor on BT474 cells; assay: Cellular binding assay by flow cytometry with cHBL-tagged trastuzumab; assay type: cell-based
Method: Inhibition of trastuzumab by binding of trast-cHBL was confirmed by cellular binding assay with HER2-overexpressed breast and ovarian cancer cell lines (BT474 and SKOV3) using a Guava EasyCyte 8HT flow cytometer (Millipore). 0.5 mL of 50000 cells/mL were cultured on 2-well tissue culture plates overnight. The plate was kept on ice for 30 min to avoid receptor internalization. The wells were washed with a blocking buffer (1.5% BSA in PBS) and incubated with trastuzumab that had been previously incubated with trast-cHBL at various concentrations in the same fashion as the ELISA experiments for 1 hour on ice. The wells were washed once and incubated with Alexa Fluor 647-conjugated goat anti-human IgG (1:500 in blocking buffer) for 1 hour on ice. The wells were washed once with blocking buffer and the cells were gently scraped to run flow cytometer. Green (FITC) and Red2 (Alexa fluorophore with λem=667 nm) fluorescence were read to confirm trast-cHBL binding. Trastuzumab without any ligands and trastuzumab—FITC conjugate were used as positive controls and the cells with Alexa Flour 647-conjugated secondary antibody and without trastuzumab were used as negative controls.

In the case of O=C(O)Cc1ccc2ccccc2c1 [2-naphteleneacetic acid], the Kd [1] is reported as 1.8 ± 0.3 µM and the Kd ([1]; listed as 2-naphthaleneacetic acid) is reported as 2 µM.
Work on Dansyl yielded a Kd (IgE^dansyl) of 0.0299 ± 0.01 µM.
With “LLGPYELWELSH [Trastuzumab binding peptide, reference compound]” the Kd (trastuzumab [2]) was 0.2 ± 0.014 µM.
For “Rituximab-cHBL: orthogonal cHBL with rituximab binding peptide WPRWLEN”, the “binding to trastuzumab (direct ELISA)” value (trastuzumab [3]) was “not selective to trastuzumab up to 20 μM”.
“Trast-DNP: trastuzumab binding peptide tagged with DNP (LLGPYELWELSH; also: tagged with DNP)” showed a Kd (trastuzumab [2]) of 0.2 ± 0.014 µM.
In the case of “Trast-ITC: trast-cHBL molecule where the napht moiety was omitted (LLGPYELWELSH)”, the antibody chain conjugated (trastuzumab [4]) is reported as “conjugated nearly equally to either heavy (50 kDa) or light chain”.
With “Trast-Napht-DNP: trastuzumab binding peptide conjugated to napht with ethylene glycol spacer, DNP tagged (LLGPYELWELSH; also: conjugated to napht with ethylene glycol spacer, DNP tagged)” the Kd (trastuzumab [2]) was 0.046 ± 0.006 µM, the Kd (trastuzumab [2]; listed as Trast-napht-DNP) was 0.0466 ± 0.006 µM and the “fold increase in observed affinity on conjugation to napht” value (trastuzumab [2]; napht with ethylene glycol spacer) was “over 4 fold”.
With “Trast-cHBL: trastuzumab-specific cHBL with peptide LLGPYELWELSH, napht, ITC and fluorescein tag (not fully specified; also: cHBL with napht, ITC and fluorescein tag)” the “binding to trastuzumab (direct ELISA)” value (trastuzumab [3]) was “significant increase in binding over trastuzumab-ITC at 1 μM”, the “naphthalene-biotin binding after cHBL incubation” value (NBS of trastuzumab) was “significantly less naphthalene binding” and the antibody chain conjugated (trastuzumab [4]) was “preferentially conjugated to light chain”. The “cHBL concentration at which FITC signal saturates” value [5] was 2 µM, the “FITC signal, percent of maximum” value ([5]; 1 μM cHBL) was “approximately 50%” and the “HER2 binding (Alexa 647 signal)” value ([5]; 1 μM cHBL) was “no significant reduction in HER2 binding”. For the same compound, the “HER2 binding retained (Alexa 647 signal)” value ([5]; 2 μM cHBL) was “approximately 75%” and the “HER2 binding (Alexa 647 signal)” value ([5]; 10 μM cHBL) was “HER2 binding drops drastically”.

Source: US20240343835A1, “COVALENT HETEROBIVALENT ANTIBODY INHIBITORS AND LIGANDS” (UNIVERSITY OF NOTRE DAME DU LAC, priority 2015, published 2024)
